“And” between values parts separate entries of the source, which are not always exact repeats. Equal values may be shown once.
What was measured:
[1] = biological target: T1, Shaker KV channel R362Q/W454A/F416A (Drosophila melanogaster, UniProt P08510, DEL6-46/F416A/R362Q/W454A); assay: Two-electrode voltage clamp in Xenopus oocytes: R362Q/W454A/F416A; assay type: cell-based; details: 100 μM
T1 construct: expressed in transfected cells; host or cells: Xenopus laevis oocytes (RNA injection)
Source text: (§1) The Shaker H4 channel (GenBank accession no. NM_167595.3; [Kamb et al., 1987]), with removed N-type inactivation due to a Δ6-46 deletion (ShH4IR, in Bluescript II KS(+) plasmid; [Hoshi et al., 1990]), is referred to as the WT Shaker KV channel. Addition of two positively charged arginines (M356R/A359R) at the extracellular top of the voltage sensor increases the effect of charged lipophilic compounds ([Ottosson et al., 2014], [2015], [2017]). […] However, for the resin-acid derivatives studied in the present investigation, R362 reduced the effect. Therefore, we specifically refer to the two added arginines just outside S4 (M356R/A359R) as the 2R motif. Mutations were introduced with site-directed mutagenesis and verified with sequencing as described previously ([Börjesson et al., 2010]). RNA injection and oocyte handling were performed as before ([Börjesson et al., 2010]; [Ottosson et al., 2015]). All animal experiments were approved by the Linköping’s local Animal Care and Use Committee.
Electrophysiological experiments were made 1–6 d after RNA injection. K^+ currents were measured with the two-electrode voltage-clamp technique (GeneClamp 500B amplifier; Axon Instruments) as described previously ([Ottosson et al., 2015]; [Silverå Ejneby et al., 2018]). […]
(§2) The conductance, G(V), was calculated as G(V)=I/(V−VK), (1) where I is the steady-state current measured at the end of each test-voltage sweep (100 ms after onset; Clampfit 10.5; Molecular Devices), V is the absolute membrane voltage, and VK is the reversal potential for K^+ ions (set to −80 mV). […] The resin-acid–induced G(V) shift was calculated as V1/2 (compound) − V1/2 (control). The relative change in GMAX was calculated as GMAX (compound) / GMAX (control). The concentration dependence for the G(V) shifts was calculated as ΔV= ΔVMAX/(1 +EC50/c), (3) where ΔV is the voltage shift, ΔVMAX is the voltage shift at saturating concentration, c is the concentration of the tested compound, and EC50 is the concentration at which half-maximum response occurs.

[2] = biological target: T2, Shaker KV channel with the 2R motif (M356R/A359R) (Drosophila melanogaster, UniProt P08510, A359R/DEL6-46/M356R); assay: Two-electrode voltage clamp in Xenopus oocytes: 2R motif channel; assay type: cell-based
T2 construct: expressed in transfected cells; host or cells: Xenopus laevis oocytes (RNA injection)
T2 sequence (P08510 other isoform, or with tags, fused parts or gaps DEL6-46/M356R/A359R): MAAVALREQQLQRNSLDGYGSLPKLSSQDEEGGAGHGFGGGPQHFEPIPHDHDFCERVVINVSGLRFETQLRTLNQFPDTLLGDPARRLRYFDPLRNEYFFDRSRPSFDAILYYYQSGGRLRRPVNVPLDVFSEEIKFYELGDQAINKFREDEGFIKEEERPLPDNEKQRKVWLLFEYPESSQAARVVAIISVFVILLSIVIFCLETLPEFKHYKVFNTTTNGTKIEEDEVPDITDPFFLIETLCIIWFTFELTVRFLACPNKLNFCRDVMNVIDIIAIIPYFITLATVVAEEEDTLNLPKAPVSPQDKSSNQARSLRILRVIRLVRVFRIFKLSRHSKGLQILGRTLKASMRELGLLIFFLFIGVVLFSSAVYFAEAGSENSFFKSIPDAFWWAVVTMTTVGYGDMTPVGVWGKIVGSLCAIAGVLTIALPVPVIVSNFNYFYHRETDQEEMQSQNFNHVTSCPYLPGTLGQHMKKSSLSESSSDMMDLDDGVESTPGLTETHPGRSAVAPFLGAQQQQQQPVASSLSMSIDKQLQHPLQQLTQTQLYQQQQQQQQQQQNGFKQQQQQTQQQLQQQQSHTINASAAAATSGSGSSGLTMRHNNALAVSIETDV
Source text: The Shaker H4 channel (GenBank accession no. NM_167595.3; [Kamb et al., 1987]), with removed N-type inactivation due to a Δ6-46 deletion (ShH4IR, in Bluescript II KS(+) plasmid; [Hoshi et al., 1990]), is referred to as the WT Shaker KV channel. […] Therefore, we specifically refer to the two added arginines just outside S4 (M356R/A359R) as the 2R motif. Mutations were introduced with site-directed mutagenesis and verified with sequencing as described previously ([Börjesson et al., 2010]). RNA injection and oocyte handling were performed as before ([Börjesson et al., 2010]; [Ottosson et al., 2015]). All animal experiments were approved by the Linköping’s local Animal Care and Use Committee.
(§3) Electrophysiological experiments were made 1–6 d after RNA injection. K^+ currents were measured with the two-electrode voltage-clamp technique (GeneClamp 500B amplifier; Axon Instruments) as described previously ([Ottosson et al., 2015]; [Silverå Ejneby et al., 2018]). The amplifier’s leak compensation was used, and the currents were low-pass filtered at 5 kHz. The control solution contained (in mM) 88 NaCl, 1 KCl, 15 HEPES, 0.4 CaCl2, and 0.8 MgCl2, and pH was set with NaOH. All experiments were made at room temperature (20°C–23°C). The holding potential was set to −80 mV (or −100 mV if the mutant was not fully closed at −80 mV).
(§4) Stock solutions were stored at −20°C and diluted in control solution just before experiments. The test solution was added to the oocyte bath manually with a syringe. […] To make sure all Wu50 molecules were negatively charged, the pH of the control solution was set to 9.0 before the experiments.
The conductance, G(V), was calculated as G(V)=I/(V−VK), (1) where I is the steady-state current measured at the end of each test-voltage sweep (100 ms after onset; Clampfit 10.5; Molecular Devices), V is the absolute membrane voltage, and VK is the reversal potential for K^+ ions (set to −80 mV). The conductance was fitted with a Boltzmann equation (GraphPad Prism 5; GraphPad Software, Inc.) GK(V)=GMAX/{1+exp[(V½−V)/s]}, (2) where GMAX is the amplitude (maximal conductance) of the curve, V is the absolute membrane voltage, V1/2 is the midpoint, and s is the slope. The resin-acid–induced G(V) shift was calculated as V1/2 (compound) − V1/2 (control). The relative change in GMAX was calculated as GMAX (compound) / GMAX (control). The concentration dependence for the G(V) shifts was calculated as ΔV= ΔVMAX/(1 +EC50/c), (3) where ΔV is the voltage shift, ΔVMAX is the voltage shift at saturating concentration, c is the concentration of the tested compound, and EC50 is the concentration at which half-maximum response occurs.

[3] = biological target: T3, Shaker KV channel M356R/A359R/R362Q (Drosophila melanogaster, UniProt P08510, A359R/DEL6-46/M356R/R362Q); assay: Two-electrode voltage clamp in Xenopus oocytes: 2R motif/R362Q; assay type: cell-based
T3 construct: expressed in transfected cells; host or cells: Xenopus laevis oocytes (RNA injection)
T3 sequence (P08510 other isoform, or with tags, fused parts or gaps DEL6-46/M356R/A359R/R362Q): as the sequence (P08510 other isoform, or with tags, fused parts or gaps DEL6-46/M356R/A359R) above, with R321Q counted along it
Source text: as §1, §3
as §4, with “the experiments. This pH change had only small effects on channel kinetics and the G(V) relation.” for “the experiments.”
as §2

[4] = tested on: Shaker KV channel binding sites (S3/S4, S4/pore, residual); assay: Additive model of site contributions to the G(V) shift (least squares fit); set-up: species or system Drosophila melanogaster
Source text: We also considered a reduced dataset of five mutants for Wu50 to make the comparison between the two compounds equitable (Table S1).
The G(V) shift for each mutant was expressed as a sum of contribution from the various sites: ΔVmodel=ΔVS3/S4+ΔVS4/pore+ΔVResidual, (4) where ΔVS3/S4 is the G(V) shift due to compound binding to the S3/S4 site, ΔVS4/pore is the G(V) shift due to compound binding to the S4/pore site, and ΔVResidual is the G(V) shift due to compound binding to other sites, including the top-VSD site.
Following the assumptions based on observations made using MD simulations, ΔVS3/S4 was set to 0 if the 2R motif was missing (i.e., in the WT channel), ΔVS4/pore could adopt one of four values depending on the type of mutation (R362/W454 = WT configuration, R362Q, W454A, or R362Q/W454A), and ΔVResidual was assumed to be the same for all mutants.
The model further assumed that there is a residual effect that can be due to binding to the VSD-top site or to any other unidentified site and that the contributions due to binding to the S3/S4 site and the S4/pore site depend upon mutations at this site.

[5] = 100 μM, pH 9.0, M356R/A359R (=2R)
[6] = 100 μM, pH 9.0, M356R/A359R/R362Q

T1 sequence (P08510 other isoform, or with tags, fused parts or gaps DEL6-46/R362Q/F416A/W454A): as the sequence (P08510 other isoform, or with tags, fused parts or gaps DEL6-46/M356R/A359R) above, with R315M, R318A, R321Q, F375A, W413A counted along it

Structure (SMILES): C[C@@]1(C(=O)O)CCC[C@]2(C)c3cc(Cl)c(Cl)c(Cl)c3CC[C@@H]12 [Wu50]
- GMAX (rel.) ([1]; pH 9.0, R362Q/W454A/F416A): 0.17 rel.
- Reduction of GMAX ([1]; R362Q/W454A/F416A, pH 9.0): 83%
- G(V) shift, representative recording (Fig. 1 D) ([2]; 100 µM, pH 9.0, 2R motif): −40.7 mV
- GMAX (rel.) [2, 5]: 1.58 rel.
- ΔVG(V) (G(V) shift) [2, 5]: −40.0 ± 2.7 mV and -40.0 mV
- Increase of the maximum G(V) shift by the 2R motif ([2]; 2R motif versus WT, Wu50 pH 9.0, Wu161 and Wu181 pH 7.4): 57%
- ΔVMAX (maximum G(V) shift) ([2]; 2R motif, pH 9.0, concentration-response (Eq. 3)): −56.5 ± 2.6 mV
- EC50 ([2]; 2R motif, pH 9.0, concentration-response (Eq. 3), read-out: EC50 of the G(V) shift (apparent affinity)): 30 ± 5 µM
- Increase of the G(V) shift by the 2R motif, in the negative direction ([2]; magnitude depending on the background mutations, 100 μM, pH 9.0): 4–32 mV
- G(V) shift, representative recording (Fig. 4 B) ([3]; 100 µM, pH 9.0, 2R motif/R362Q): −59.0 mV
- GMAX (rel.) [3, 6]: 1.93 rel.
- ΔVG(V) (G(V) shift) [3, 6]: −54.0 ± 2.3 mV and -54.0 mV
- ΔVS3/S4 (contribution of the S3/S4 site in the presence of the 2R mutations) ([4]; eight mutants): −17 mV
- ΔVS4/pore, R362Q configuration ([4]; eight mutants): −34 mV
- ΔVS4/pore, R362Q/W454A configuration ([4]; eight mutants): −31 mV
- ΔVS4/pore, WT S4/pore site ([4]; eight mutants): −15 mV
- ΔVS3/S4 (contribution of the S3/S4 site in the presence of the 2R mutations) ([4]; five mutants): −10 mV
- ΔVS4/pore, R362Q configuration ([4]; five mutants): −37 mV
- ΔVS4/pore, WT S4/pore site ([4]; five mutants): −18 mV
- ΔVResidual (contribution of other sites to the G(V) shift) ([4]; five mutants (Wu50 constrained to be the same as for eight mutants)): −10 mV
- ΔVS4/pore, W454A configuration ([4]; no clear difference between five-mutants and eight-mutants datasets): +2 to −6 mV
